Measured values as given in patent US20100003711A1, “Methods to identify therapeutic agents” (THE SCRIPPS RESEARCH INSTITUTE, priority 2005, published 2010).

Columns and labels:
neuronal cell lines = assay: Cytotoxicity towards neuronal cell lines (similar procedures); assay type: cell-based
[1] = test system: murine macrophage J774A.1; assay: Modified Boyden chamber migration (chemotaxis) assay; assay type: cell-based
Description: Chemotaxis and invasion assays were performed using a modified Boyden chamber migration assay. Zwirner et al. (1998) Eur. J. Immunol. 28: 1570-77; Wilkinson (1988) Methods Enzymol. 162: 38-50. Assays were set up on MultiScreen-MIC plates (Millipore, Billerica, Mass., USA) with polyvinylpyrrolidone-free polycarbonate membranes (5 μm pore size). Cells (murine macrophage J774A.1) were washed and resuspended in serum-free DMEM containing 0.2% BSA at 1×10^6 cells/ml. Fifty microliters of cells were added to the upper wells and 150 μl of chemoattractant in DMEM/0.2% BSA were added to the lower wells of the microchamber. Incubation time was for 4 h at 37° C. in an 8% CO2 atmosphere. After swiping cells off the upper side of the membrane, cells on the lower side were visualized by either staining and phase contrast microscopy, or fluorescence. Cells that had adhered to the membrane were stained using a DiffQuik staining kit (Dade Behring, Newark, Del.). Each experiment was performed in triplicate and the numbers of migrating cells were counted in five fields at ×200. Cells harvested with PBS-EDTA for fluorescent labeling were washed two times with PBS, then resuspended in serum-free medium containing calcein AM (5 μM). Cells were incubated for 30 min (37° C., 5% CO2) with gentle intermittent mixing. Calcein-labeled cells were washed twice, and calcein fluorescence ([…]) was measured using a SPECTRAmax™ GEMINI dual-scanning microplate spectrofluorometer. Fluorescence measurements were compared to a standard curve, generated by dilution of cells in PBS/BSA in 100 μl, dispensed into 96-well plates. Fluorescence was quantified as described above.

VCAM-1 (CD106) = assay: Endothelial adhesion molecule expression by ELISA, VCAM-1; assay type: cell-based, human
Description: Endothelial cell surface adhesion molecule expression was measured by ELISA, using anti-human CD54 (ICAM-1), CD106 (VCAM-1) and CD62E (E-Selectin) antibodies (Leinco Technologies, Inc., St. Louis, Mo.). The ELISA method was modified from previously described procedures.
Cells were then incubated with antibodies to VCAM-1, E-selectin, or ICAM-1 diluted 1:400 in PBS containing 5% FCS at 37° C. for 30 min. Wells were washed two times with PBS, then incubated with horseradish peroxidase (HRP)-conjugated goat anti-mouse IgG (Southern Biotechnology Associates, Birmingham, Ala., USA) in PBS/5% FCS at 37° C. for 30 min. The wells were washed four times with PBS, then incubated with H2O2/3,3′,5,5′-tetramethyl-benzidine peroxidase substrate (Pierce Chemical, Rockford, Ill., USA) for 30 min in the dark. The reaction was stopped by adding 25 μl of 8 N H2SO4, and the plates read on a microplate reader, blanking on wells stained with only secondary antibody. Each assay was performed in triplicate and the data are reported as the mean±SEM as a percentage of the expression level of the vehicle. To study the effect of cholesterol ozonation product 5a concentration (5-50 μM) on E-selectin expression, the assay was performed in an identical fashion as described above, with each point being the mean±SEM of at least duplicate measurements.

[2] = Aldolization of ketoaldehyde 4a with amino acids (1H NMR); assay type: physicochemical; settings: DMSO-d6 (800 μl) and D2O (80 μl) without amino acid
Description: Aldolization of ketoaldehyde 4a with amino acids. […] To this solution was added 1 equivalent of either: a) L-proline, b) glycine, c) L-lysine hydrochloride or d) L-lysine ethyl ester dihydrochloride. At time points the samples were analyzed by ^1H NMR.

## CC(C)CCC[C@@H](C)[C@H]1CCC2C(CC=O)C([C@@]3(C)CC[C@H](O)CC3=O)CC[C@@]21C (stereo partly shown) [4a, 3βHydroxy-5-oxo-5,6-secocholestan-6-al]
Neuronal cell lines
  cytotoxicity towards neuronal cell lines: cytotoxic
[1]; 0-25 μM, 4 h, P<0.001
  recruitment (migration) of macrophages: dose-dependent recruitment of macrophages
[1]; compound co-incubated with BSA
  migration of macrophages: macrophage migration still occurs
[1]; compound complexed with native LDL (100 μg/ml)
  migration of macrophages: no significant migration
VCAM-1 (CD106); HAAE-1, 25 μM compound in the presence of LDL, 4 h
  VCAM-1 levels: remain unchanged
VCAM-1 (CD106); HAAE-1, not complexed with LDL
  integrin expression (VCAM-1): no effects
[2]
  aldolization of 4a: no aldolization
